ChEMBL document CHEMBL1201862, “PubChem BioAssay data set” (2004)
Each block holds one molecule with its values, some of them ahead of it. Calls of active or inactive are those of the source.

Tests used:
Cysteine protease ATG4B = Cysteine protease ATG4B (Homo sapiens, UniProt Q9Y4P1); assay: ATG4B protease inhibitors, dose response, biochemical, fluorescence, set 2 (AID 588584); format: functional
[1] = Luminescence Cell-Based Dose Retest to Confirm Inhibitors of Cancer Stem Cells. [Related pubchem assays (depositor defined):AID2717, AID2721]; format: functional; conditions: Homo sapiens
Phospholipase A2 = Phospholipase A2 (Homo sapiens, UniProt P04054); assay: PLA2 enzyme inhibitors, dose response, counter-screen for ATG4B inhibitor project, biochemical, set 2 (AID 588586); format: functional
Phospholipase A2, sequence (P04054 whole entry): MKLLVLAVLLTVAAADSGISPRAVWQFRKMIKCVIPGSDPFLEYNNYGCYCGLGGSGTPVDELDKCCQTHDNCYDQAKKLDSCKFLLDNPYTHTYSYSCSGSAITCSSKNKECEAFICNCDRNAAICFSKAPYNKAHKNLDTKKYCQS

[2] = target: T1, Tyrosine-protein phosphatase non-receptor type 22 (Homo sapiens, UniProt Q9Y2R2); format: functional
T1 sequence (Q9Y2R2 whole entry): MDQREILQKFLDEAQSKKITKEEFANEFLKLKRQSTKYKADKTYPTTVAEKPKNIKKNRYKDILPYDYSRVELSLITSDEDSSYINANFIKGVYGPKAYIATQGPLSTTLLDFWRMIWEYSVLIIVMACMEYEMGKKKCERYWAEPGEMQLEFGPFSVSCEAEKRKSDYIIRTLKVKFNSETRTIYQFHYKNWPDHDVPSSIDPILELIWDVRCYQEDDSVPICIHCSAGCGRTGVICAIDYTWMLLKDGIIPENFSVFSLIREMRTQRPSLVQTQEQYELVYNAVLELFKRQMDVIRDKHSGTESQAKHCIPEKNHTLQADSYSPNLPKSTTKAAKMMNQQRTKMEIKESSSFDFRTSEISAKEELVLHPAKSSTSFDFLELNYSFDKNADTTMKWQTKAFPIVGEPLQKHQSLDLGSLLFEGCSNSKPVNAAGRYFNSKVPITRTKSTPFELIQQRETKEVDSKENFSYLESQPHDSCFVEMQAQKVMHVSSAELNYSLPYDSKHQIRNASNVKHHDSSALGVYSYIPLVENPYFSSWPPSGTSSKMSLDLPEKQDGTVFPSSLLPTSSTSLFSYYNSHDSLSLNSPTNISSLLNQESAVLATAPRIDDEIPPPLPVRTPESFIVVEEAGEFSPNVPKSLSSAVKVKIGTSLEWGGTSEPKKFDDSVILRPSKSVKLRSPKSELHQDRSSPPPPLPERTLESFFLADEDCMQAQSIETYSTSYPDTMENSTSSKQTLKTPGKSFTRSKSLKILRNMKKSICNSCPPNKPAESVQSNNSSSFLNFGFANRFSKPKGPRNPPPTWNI

[3] = target: T1, Tyrosine-protein phosphatase non-receptor type 22; format: functional; remark: listed apart in the source
[4] = target: T2, Tyrosine-protein phosphatase non-receptor type 7 (Homo sapiens, UniProt P35236); assay: HePTP (PTPN7) phosphatase inhibitor potency, SAR follow-up, biochemical, set 2 (AID 449736); format: functional
T2 sequence (P35236 whole entry): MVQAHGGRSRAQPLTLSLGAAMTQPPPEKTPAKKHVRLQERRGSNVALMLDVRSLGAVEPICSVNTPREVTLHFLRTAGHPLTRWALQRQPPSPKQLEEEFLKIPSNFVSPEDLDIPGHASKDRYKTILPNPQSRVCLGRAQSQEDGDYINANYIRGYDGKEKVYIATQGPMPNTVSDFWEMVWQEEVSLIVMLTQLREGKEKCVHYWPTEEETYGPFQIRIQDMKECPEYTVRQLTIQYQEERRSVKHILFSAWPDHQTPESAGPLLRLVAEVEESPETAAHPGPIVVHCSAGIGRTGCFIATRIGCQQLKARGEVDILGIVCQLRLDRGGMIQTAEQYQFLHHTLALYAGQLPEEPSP

[5] = target: T3, Heat shock factor protein 1 (Mus musculus, UniProt P38532); assay: HSF1 potentiators in luciferase reporter cells, confirmation, cell-based, NIH3T3, luminescence, dose retest (AID 435004); format: functional;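 note: stress induced by proteasome inhibitor MG132 added 30 min after compound; luciferase reporter driven by HSF1 response element in NIH3T3 cells; actives raise luminescence as potentiators of the MG132 stress response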
T3 sequence (P38532 whole entry): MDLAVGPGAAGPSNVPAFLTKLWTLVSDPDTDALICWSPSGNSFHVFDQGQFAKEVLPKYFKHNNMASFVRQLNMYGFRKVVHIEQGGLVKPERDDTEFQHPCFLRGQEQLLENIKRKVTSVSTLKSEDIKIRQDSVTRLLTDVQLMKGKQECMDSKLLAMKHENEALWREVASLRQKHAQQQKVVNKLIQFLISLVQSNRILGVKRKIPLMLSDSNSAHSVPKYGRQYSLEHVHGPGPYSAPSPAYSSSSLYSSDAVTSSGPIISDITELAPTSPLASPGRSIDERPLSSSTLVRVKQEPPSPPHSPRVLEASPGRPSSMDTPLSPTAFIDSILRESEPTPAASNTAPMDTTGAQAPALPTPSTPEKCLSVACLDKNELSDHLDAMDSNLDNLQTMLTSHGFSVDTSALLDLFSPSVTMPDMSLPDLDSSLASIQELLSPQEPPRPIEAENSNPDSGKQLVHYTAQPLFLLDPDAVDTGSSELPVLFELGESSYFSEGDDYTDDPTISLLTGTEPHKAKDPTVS

[6] = target: T1, Tyrosine-protein phosphatase non-receptor type 22; assay: inhibitors of LYP phosphatase, biochemical, fluorescence intensity, uHTS (AID 1779)
[7] = target: T2, Tyrosine-protein phosphatase non-receptor type 7; format: functional
[8] = target: T1, Tyrosine-protein phosphatase non-receptor type 22; assay: SAR LYP1 Fluorescent Assay using pCAP substrate for In Vitro dose response studies - Set 2. [Related pubchem assays (depositor defined):AID1779, AID1784, AID2135, AID449727]; format: functional
[9] = target: T1, Tyrosine-protein phosphatase non-receptor type 22; assay: SAR LYP1 Fluorescent Assay using OMFP substrate for In Vitro dose response studies - Set 2. [Related pubchem assays (depositor defined):AID1779, AID1784, AID2140, AID449726, AID488869]; format: functional
[10] = target: T1, Tyrosine-protein phosphatase non-receptor type 22; assay: PubChem AID 2140
[11] = target: T4, Apoptotic protease-activating factor 1 (Homo sapiens, UniProt O14727); assay: activation of Apaf-1 mediated apoptosis – fluorescent, uHTS hits, dose response (AID 588554); format: functional
T4 sequence (O14727 whole entry): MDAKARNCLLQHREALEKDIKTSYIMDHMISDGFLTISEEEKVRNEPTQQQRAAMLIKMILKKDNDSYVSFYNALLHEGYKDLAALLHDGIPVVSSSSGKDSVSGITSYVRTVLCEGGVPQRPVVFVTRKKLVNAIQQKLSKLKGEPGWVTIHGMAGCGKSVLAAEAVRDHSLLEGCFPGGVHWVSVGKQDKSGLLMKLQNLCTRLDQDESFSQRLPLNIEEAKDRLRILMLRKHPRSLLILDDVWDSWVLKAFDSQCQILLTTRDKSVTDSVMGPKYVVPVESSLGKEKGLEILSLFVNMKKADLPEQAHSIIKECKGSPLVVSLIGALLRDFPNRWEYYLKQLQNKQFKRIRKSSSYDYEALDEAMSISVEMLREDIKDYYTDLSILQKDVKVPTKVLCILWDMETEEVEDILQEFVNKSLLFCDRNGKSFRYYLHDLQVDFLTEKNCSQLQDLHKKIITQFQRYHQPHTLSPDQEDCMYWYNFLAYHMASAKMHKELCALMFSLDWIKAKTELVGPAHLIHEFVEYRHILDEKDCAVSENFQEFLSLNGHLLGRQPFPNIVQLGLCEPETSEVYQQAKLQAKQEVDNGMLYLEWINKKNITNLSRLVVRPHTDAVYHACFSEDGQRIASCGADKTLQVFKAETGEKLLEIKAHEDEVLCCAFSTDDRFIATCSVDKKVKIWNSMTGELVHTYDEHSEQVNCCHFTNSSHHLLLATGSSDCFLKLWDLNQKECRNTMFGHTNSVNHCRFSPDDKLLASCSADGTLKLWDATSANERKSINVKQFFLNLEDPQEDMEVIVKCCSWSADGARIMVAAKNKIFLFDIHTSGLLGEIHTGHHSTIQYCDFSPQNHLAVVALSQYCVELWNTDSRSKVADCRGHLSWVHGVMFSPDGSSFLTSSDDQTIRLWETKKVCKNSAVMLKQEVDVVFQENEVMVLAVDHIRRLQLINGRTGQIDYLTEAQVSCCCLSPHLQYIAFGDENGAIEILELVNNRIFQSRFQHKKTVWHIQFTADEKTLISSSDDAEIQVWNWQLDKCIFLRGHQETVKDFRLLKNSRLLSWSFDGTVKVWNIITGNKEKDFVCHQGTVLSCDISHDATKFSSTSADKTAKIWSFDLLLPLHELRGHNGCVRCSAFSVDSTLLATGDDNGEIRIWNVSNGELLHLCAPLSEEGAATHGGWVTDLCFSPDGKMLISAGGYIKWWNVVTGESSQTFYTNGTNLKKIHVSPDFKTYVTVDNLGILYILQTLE

[12] = target: Tyrosine-protein phosphatase non-receptor type 12 (Homo sapiens, UniProt Q05209); assay: SAR Selectivity Analysis of small molecule inhibitors of PEST using pCAP in a fluorescence assay. [Related pubchem assays (depositor defined):AID1779, AID1784, AID2135]; format: functional
Tyrosine-protein phosphatase non-receptor type 12, sequence (Q05209 whole entry): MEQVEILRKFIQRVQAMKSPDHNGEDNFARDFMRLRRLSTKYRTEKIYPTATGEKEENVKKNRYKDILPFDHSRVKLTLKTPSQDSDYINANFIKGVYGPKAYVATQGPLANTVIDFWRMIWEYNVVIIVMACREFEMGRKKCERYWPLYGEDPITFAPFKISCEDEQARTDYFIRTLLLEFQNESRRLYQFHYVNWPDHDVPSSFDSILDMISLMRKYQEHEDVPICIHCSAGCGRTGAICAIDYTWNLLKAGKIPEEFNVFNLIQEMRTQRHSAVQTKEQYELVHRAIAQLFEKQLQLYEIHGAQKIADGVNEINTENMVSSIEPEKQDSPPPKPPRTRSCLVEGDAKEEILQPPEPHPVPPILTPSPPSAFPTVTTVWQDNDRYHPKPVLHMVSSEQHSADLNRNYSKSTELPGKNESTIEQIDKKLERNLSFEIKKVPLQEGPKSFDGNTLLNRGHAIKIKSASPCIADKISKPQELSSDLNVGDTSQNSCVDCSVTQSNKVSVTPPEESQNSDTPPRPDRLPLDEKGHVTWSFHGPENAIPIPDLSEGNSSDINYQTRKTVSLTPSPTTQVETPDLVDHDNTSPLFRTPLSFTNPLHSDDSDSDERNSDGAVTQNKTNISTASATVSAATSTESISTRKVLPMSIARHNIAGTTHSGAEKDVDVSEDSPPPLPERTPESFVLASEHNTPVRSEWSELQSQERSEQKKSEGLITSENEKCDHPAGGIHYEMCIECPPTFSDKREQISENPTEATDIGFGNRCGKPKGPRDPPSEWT

[13] = target: T1, Tyrosine-protein phosphatase non-receptor type 22; assay: SAR LYP1 Fluorescent Assay using OMFP substrate for In Vitro dose response studies - Set 3. [Related pubchem assays (depositor defined):AID1779, AID1784, AID2140, AID2686]; format: functional
[14] = target: T1, Tyrosine-protein phosphatase non-receptor type 22; assay: PubChem AID 2135
Escherichia coli = assay: microbe, parasite or virus in culture
Fatty acid synthase [15] = target: T5, Fatty acid synthase (Homo sapiens, UniProt P49327); assay: FAS thioesterase domain inhibitors, dose response, biochemical, endpoint fluorescence intensity, uHTS hits (AID 624327); format: functional;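 note: fluorescence from hydrolysis of an O-methyl fluorescein acyl ester substrate by the enzyme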
T5 sequence (P49327 whole entry, the tested form may be a part): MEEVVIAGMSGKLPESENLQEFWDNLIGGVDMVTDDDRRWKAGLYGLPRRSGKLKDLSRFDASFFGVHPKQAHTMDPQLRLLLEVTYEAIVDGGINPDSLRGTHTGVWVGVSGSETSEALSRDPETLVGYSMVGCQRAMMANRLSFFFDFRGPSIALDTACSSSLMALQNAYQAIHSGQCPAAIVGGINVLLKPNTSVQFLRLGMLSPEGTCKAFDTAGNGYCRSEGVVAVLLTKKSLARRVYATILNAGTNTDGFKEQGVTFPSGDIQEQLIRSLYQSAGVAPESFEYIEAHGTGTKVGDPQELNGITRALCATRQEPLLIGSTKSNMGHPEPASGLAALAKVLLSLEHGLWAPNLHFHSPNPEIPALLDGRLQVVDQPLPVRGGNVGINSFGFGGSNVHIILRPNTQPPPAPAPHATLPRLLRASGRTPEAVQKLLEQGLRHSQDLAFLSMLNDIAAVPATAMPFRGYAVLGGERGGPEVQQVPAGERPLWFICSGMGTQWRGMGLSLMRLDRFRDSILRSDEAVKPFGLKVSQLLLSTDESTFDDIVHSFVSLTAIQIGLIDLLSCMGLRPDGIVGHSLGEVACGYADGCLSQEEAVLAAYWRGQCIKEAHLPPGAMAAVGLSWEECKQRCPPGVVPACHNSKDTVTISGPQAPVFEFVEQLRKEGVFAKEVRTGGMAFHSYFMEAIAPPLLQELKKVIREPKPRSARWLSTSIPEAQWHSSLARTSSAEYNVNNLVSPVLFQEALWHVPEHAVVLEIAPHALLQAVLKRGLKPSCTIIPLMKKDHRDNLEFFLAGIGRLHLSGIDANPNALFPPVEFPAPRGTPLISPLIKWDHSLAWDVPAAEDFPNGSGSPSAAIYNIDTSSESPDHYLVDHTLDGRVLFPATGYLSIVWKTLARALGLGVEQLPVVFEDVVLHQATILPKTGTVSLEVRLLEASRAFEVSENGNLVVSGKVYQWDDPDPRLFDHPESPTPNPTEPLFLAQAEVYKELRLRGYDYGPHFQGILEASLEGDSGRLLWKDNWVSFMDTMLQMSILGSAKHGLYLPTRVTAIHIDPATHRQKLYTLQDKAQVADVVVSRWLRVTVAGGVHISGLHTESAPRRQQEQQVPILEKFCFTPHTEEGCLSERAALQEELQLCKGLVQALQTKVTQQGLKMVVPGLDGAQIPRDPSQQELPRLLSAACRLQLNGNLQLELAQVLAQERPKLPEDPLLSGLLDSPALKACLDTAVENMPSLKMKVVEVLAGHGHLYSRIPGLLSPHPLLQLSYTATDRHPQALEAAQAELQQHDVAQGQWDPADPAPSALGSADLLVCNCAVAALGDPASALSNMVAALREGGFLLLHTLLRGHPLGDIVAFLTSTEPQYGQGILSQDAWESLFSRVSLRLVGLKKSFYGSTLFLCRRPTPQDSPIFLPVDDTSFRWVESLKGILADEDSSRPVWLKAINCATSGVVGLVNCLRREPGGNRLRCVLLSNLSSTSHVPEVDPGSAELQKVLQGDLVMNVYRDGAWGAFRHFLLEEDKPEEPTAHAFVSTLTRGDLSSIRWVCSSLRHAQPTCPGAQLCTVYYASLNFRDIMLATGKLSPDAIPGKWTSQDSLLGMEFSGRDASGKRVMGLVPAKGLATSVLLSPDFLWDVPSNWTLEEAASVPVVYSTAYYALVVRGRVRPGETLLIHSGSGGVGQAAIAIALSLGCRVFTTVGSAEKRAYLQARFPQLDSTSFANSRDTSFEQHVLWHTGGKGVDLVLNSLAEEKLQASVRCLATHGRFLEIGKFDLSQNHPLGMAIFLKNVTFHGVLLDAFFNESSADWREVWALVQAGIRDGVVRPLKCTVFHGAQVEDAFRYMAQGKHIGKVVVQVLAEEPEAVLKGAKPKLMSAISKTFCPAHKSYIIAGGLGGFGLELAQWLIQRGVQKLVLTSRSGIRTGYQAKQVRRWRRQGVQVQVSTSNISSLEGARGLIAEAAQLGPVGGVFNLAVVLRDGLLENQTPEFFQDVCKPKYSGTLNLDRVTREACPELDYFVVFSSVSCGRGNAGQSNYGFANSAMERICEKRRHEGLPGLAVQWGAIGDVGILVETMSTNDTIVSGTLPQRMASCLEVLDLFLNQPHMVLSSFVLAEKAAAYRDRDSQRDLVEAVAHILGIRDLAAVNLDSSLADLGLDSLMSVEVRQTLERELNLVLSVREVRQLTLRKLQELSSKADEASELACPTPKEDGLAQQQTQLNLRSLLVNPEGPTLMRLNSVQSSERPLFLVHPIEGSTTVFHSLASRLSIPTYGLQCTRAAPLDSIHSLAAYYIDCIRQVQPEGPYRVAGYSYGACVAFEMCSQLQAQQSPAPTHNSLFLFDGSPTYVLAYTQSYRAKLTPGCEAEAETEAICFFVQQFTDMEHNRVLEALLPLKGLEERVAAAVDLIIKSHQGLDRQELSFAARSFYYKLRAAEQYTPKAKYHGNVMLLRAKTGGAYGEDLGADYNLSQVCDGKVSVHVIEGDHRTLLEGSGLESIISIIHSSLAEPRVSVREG

[16] = target: T6, Corticotropin-releasing factor receptor 2/Corticotropin-releasing factor-binding protein (Homo sapiens, UniProt P24387+Q13324); assay: Dose Response confirmation of uHTS hits for small molecule antagonists of the CRF-binding protein and CRF-R2 receptor complex.; format: functional; conditions: read-out: IC50_Mean
T6 sequence (Q13324 whole entry): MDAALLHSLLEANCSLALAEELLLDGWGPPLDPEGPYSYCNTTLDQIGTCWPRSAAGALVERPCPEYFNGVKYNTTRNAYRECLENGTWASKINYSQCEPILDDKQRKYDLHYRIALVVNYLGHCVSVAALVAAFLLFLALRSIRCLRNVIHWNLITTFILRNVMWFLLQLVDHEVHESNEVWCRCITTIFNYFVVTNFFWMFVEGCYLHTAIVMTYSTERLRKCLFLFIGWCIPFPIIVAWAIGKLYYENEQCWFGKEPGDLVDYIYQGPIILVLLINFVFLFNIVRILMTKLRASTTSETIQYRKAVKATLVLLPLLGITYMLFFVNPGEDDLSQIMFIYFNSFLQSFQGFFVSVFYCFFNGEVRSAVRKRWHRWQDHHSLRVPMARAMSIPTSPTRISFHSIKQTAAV
T6 sequence (P24387 whole entry): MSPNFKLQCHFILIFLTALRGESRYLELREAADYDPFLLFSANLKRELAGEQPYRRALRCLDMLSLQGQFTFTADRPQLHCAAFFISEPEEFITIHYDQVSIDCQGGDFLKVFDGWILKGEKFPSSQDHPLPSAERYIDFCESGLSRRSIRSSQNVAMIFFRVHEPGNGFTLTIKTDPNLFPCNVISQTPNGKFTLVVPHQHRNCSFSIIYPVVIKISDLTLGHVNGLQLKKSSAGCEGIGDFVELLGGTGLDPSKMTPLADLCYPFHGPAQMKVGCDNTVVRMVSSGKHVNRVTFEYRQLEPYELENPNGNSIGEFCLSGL

[17] = target: T6, Corticotropin-releasing factor receptor 2/Corticotropin-releasing factor-binding protein; assay: activators of CRF receptor 2 with binding protein – uHTS hits, confirmation (AID 602473); format: functional; conditions: read-out: EC50_Mean
Fatty acid synthase [18] = target: T5, Fatty acid synthase; assay: FAS thioesterase domain inhibitors, dose response, biochemical, kinetic fluorescence intensity (AID 624326); format: functional;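 note: rate of fluorescence rise from hydrolysis of a fluorogenic O-methyl fluorescein ester substrate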
Keap1/Nrf2 = Keap1/Nrf2 (Homo sapiens, UniProt Q14145); assay: Keap1-Nrf2 protein-protein interaction inhibitors, dose response, biochemical, fluorescence polarization, cherry-picked samples (AID 588683)
Keap1/Nrf2, sequence (Q16236 whole entry): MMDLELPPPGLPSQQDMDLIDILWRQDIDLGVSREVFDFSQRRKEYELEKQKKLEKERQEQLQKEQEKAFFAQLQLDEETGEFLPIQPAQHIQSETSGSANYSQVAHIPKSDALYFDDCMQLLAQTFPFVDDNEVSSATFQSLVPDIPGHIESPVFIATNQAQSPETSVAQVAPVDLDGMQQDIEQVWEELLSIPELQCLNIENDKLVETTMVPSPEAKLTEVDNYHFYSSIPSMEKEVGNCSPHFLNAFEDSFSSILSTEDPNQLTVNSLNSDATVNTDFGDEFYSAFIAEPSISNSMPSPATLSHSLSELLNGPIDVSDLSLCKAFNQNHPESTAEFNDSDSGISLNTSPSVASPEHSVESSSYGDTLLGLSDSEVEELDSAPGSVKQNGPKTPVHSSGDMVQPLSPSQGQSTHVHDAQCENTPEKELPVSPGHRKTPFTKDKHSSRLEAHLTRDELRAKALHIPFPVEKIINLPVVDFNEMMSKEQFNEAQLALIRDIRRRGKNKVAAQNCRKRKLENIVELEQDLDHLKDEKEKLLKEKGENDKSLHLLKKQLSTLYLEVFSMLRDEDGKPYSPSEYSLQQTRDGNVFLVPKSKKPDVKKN
Keap1/Nrf2, sequence (Q14145 whole entry): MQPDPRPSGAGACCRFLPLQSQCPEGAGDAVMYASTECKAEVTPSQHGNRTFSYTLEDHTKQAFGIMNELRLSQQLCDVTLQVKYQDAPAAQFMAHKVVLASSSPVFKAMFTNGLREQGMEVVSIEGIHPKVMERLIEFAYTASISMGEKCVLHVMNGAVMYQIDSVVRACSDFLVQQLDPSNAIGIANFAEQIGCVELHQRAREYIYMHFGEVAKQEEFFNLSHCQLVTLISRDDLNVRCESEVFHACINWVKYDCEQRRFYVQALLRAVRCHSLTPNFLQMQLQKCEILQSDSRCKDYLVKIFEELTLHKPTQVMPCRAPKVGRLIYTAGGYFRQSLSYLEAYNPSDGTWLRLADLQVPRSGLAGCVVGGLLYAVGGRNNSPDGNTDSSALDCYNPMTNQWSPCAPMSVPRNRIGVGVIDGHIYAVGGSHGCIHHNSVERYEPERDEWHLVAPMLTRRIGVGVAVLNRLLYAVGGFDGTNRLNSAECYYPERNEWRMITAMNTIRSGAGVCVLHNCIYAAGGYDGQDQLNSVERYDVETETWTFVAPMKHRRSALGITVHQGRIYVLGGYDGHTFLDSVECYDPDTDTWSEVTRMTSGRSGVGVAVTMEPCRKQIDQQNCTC

Cysteine protease ATG4B, sequence (Q9Y4P1 whole entry): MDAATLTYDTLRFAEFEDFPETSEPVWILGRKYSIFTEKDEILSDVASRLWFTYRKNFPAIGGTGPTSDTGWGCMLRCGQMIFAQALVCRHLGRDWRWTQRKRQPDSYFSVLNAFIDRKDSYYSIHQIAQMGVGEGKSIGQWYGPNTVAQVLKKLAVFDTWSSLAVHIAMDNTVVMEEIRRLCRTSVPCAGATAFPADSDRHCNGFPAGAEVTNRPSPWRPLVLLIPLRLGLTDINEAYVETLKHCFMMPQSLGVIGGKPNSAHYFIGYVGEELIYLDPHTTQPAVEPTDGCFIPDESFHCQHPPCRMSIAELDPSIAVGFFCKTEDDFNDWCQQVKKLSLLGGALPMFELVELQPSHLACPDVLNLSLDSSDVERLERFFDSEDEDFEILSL

Structure (SMILES): COc1ccc(OC)c(NC(=O)c2nnn(Cc3ccccc3C)c2N)c1
IC50 (Cysteine protease ATG4B): 19.9 µM (active) | AC50 [1]: 2.47 µM (active) | IC50 (Phospholipase A2): 13.4 µM (active)

IC50 [2]: 6.42 µM (active) | IC50 [3]: 6.86 µM (active) | IC50 [4]: 0.651 µM (active) | EC50 [5]: 10.9 µM (active) | IC50 [6]: 8.62 µM (active) | IC50 [7]: 14.6 µM (active) | IC50 [8]: 6.54 µM (active) | IC50 [9]: 3.77 µM (active) | IC50 [10]: 34.2 µM (active) | EC50 [11]: 20.8 µM (active) | IC50 [12]: 2.91 µM (active) | IC50 [13]: 4.74 µM (active) | IC50 [14]: 4.96 µM (active)
Structure (SMILES): N#C/C(=C\c1ccc(OCc2ccc(Cl)cc2)cc1)C(=O)Nc1cccc(C(=O)O)c1

Structure (SMILES): CCn1c(=O)c2c3c(sc2n2c(S)nnc12)CCC3
AC50 (Escherichia coli): 24.2 µM (active)

IC50 (Fatty acid synthase [15]): 13.3 µM (active) | IC50 [16]: 0.754 µM (active) | EC50 [17]: 38.6 µM (active) | IC50 (Fatty acid synthase [18]): 9.07 µM (active) | AC50 (Keap1/Nrf2): 25.7 µM (active)
Structure (SMILES): COc1ccc(C(C)=NNc2ccc([N+](=O)[O-])cc2S(=O)(=O)Nc2ccccc2C(=O)O)c(OC)c1
